From ChEMBL document CHEMBL3351722, “Optimized inhibitors of soluble epoxide hydrolase improve in vitro target residence time and in vivo efficacy” (J Med Chem, 2014)

System: not listed separately
Experiment: Half life in Sprague-Dawley rat at 0.3 mg/kg, po administered as cassette dosing
Format: ADME, organism-based
Design: dose 0.3 mg/kg, route oral
Details: in vivo

SMILES | half-life [h]
CC(C)C(=O)N1CCC(NC(=O)Nc2ccc(C(F)(F)F)cc2)CC1 | 5.4
CC[C@H](C)C(=O)N1CCC(NC(=O)Nc2ccc(C(F)(F)F)cc2)CC1 | 4.9
CC(C)C(=O)N1CCC(NC(=O)Nc2ccc(OC(F)(F)F)cc2)CC1 | 3.5
CC[C@H](C)C(=O)N1CCC(NC(=O)Nc2ccc(OC(F)(F)F)cc2)CC1 | 4.2

System: not listed separately
Experiment: Cmax in Sprague-Dawley rat at 0.3 mg/kg, po administered as cassette dosing
Format: ADME, organism-based
Design: dose 0.3 mg/kg, route oral
Details: in vivo

SMILES | Cmax [nM]
CC(C)C(=O)N1CCC(NC(=O)Nc2ccc(C(F)(F)F)cc2)CC1 | 510
CC[C@H](C)C(=O)N1CCC(NC(=O)Nc2ccc(C(F)(F)F)cc2)CC1 | 790
CC(C)C(=O)N1CCC(NC(=O)Nc2ccc(OC(F)(F)F)cc2)CC1 | 890
CC[C@H](C)C(=O)N1CCC(NC(=O)Nc2ccc(OC(F)(F)F)cc2)CC1 | 297

System: not listed separately
Experiment: in vivo
Details: Sprague-Dawley, rat, po, 0.3 mg/kg

SMILES | Tmax [h]
CC(C)C(=O)N1CCC(NC(=O)Nc2ccc(C(F)(F)F)cc2)CC1 | 4
CC[C@H](C)C(=O)N1CCC(NC(=O)Nc2ccc(C(F)(F)F)cc2)CC1 | 1
CC(C)C(=O)N1CCC(NC(=O)Nc2ccc(OC(F)(F)F)cc2)CC1 | 1
CC[C@H](C)C(=O)N1CCC(NC(=O)Nc2ccc(OC(F)(F)F)cc2)CC1 | 4

System: not listed separately
Experiment: (§1) Half life in Swiss Webster mouse at 0.3 mg/kg, po administered as cassette dosing
Format: ADME, organism-based
Design: dose 0.3 mg/kg, route oral
Details: Swiss Webster, in vivo

SMILES | half-life [h]
CS(=O)(=O)N1CCC(NC(=O)Nc2ccc(OC(F)(F)F)cc2)CC1 | 15
CS(=O)(=O)N1CCC(NC(=O)Nc2ccc(C(F)(F)F)cc2)CC1 | 22
CC(C)C(=O)N1CCC(NC(=O)Nc2ccc(C(F)(F)F)cc2)CC1 | 6
O=C(Nc1ccc(C(F)(F)F)cc1)NC1CCN(C(=O)C2CC2)CC1 | 17
CCC(C)C(=O)N1CCC(NC(=O)Nc2ccc(C(F)(F)F)cc2)CC1 (stereo not drawn) | 6
CC[C@H](C)C(=O)N1CCC(NC(=O)Nc2ccc(C(F)(F)F)cc2)CC1 | 5
O=C(Nc1ccc(C(F)(F)F)cc1)NC1CCN(C(=O)CC(F)(F)F)CC1 | 15.4
CCC(C)C(=O)N1CCC(NC(=O)Nc2ccc(C(F)(C(F)(F)F)C(F)(F)F)cc2)CC1 (stereo not drawn) | 4.5
CCC(C)C(=O)N1CCC(NC(=O)Nc2ccc(OC(F)(F)F)cc2)CC1 (stereo not drawn) | 6
CCC(C)C(=O)N1CCC(NC(=O)NC2CCCCCC2)CC1 (stereo not drawn) | 8.4
CC(C)C(=O)N1CCC(NC(=O)Nc2ccc(OC(F)(F)F)cc2)CC1 | 9
CC[C@H](C)C(=O)N1CCC(NC(=O)Nc2ccc(OC(F)(F)F)cc2)CC1 | 7.7
O=C(Nc1ccc(C(F)(C(F)(F)F)C(F)(F)F)cc1)NC1CCN(C(=O)CC(F)(F)F)CC1 | 18.9
O=C(Nc1ccc(C(F)(F)F)cc1)NC1CCN(S(=O)(=O)CC(F)(F)F)CC1 | 25
CCCCS(=O)(=O)N1CCC(NC(=O)Nc2ccc(C(F)(F)F)cc2)CC1 | 7.4
CCCCS(=O)(=O)N1CCC(NC(=O)Nc2ccc(OC(F)(F)F)cc2)CC1 | 2

System: Mus musculus
Experiment: as §1
Format: ADME, organism-based
Design: dose 0.3 mg/kg, route oral
Details: in vivo

SMILES | t1/2 [h]
CCC(C)C(=O)N1CCC(NC(=O)N[C@H]2CC[C@H](CC)CC2)CC1 (stereo partly drawn) | 12

System: not listed separately
Experiment: Lipophilicity, log P of the compound by shake-flask method
Format: physicochemical
Details: octanol/water

SMILES | logP
CC(=O)N1CCC(NC(=O)Nc2ccc(C(F)(F)F)cc2)CC1 | 2.74
CS(=O)(=O)N1CCC(NC(=O)Nc2ccc(C(F)(F)F)cc2)CC1 | 2.94
CC(C)S(=O)(=O)N1CCC(NC(=O)Nc2ccc(C(F)(F)F)cc2)CC1 | 3.39
O=C(Nc1ccc(C(F)(F)F)cc1)NC1CCN(C(=O)C2CC2)CC1 | 3.18
CCC(C)C(=O)N1CCC(NC(=O)Nc2ccc(C(F)(F)F)cc2)CC1 (stereo not drawn) | 3.83
CC[C@H](C)C(=O)N1CCC(NC(=O)Nc2ccc(C(F)(F)F)cc2)CC1 | 3.84
CC(C)CC(=O)N1CCC(NC(=O)Nc2ccc(C(F)(F)F)cc2)CC1 | 3.86
O=C(Nc1ccc(C(F)(F)F)cc1)NC1CCN(C(=O)CC(F)(F)F)CC1 | 3.99
O=C(Nc1ccc(C(F)(F)F)cc1)NC1CCN(C(=O)CCC(F)(F)F)CC1 | 3.66
CCC(C)C(=O)N1CCC(NC(=O)Nc2ccc(C(C)C)cc2)CC1 (stereo not drawn) | 4.21
CCC(C)C(=O)N1CCC(NC(=O)Nc2ccc(C(C)(C)C)cc2)CC1 (stereo not drawn) | 5.12
CCC(C)C(=O)N1CCC(NC(=O)Nc2ccc(C(F)(C(F)(F)F)C(F)(F)F)cc2)CC1 (stereo not drawn) | 4.96
CCC(C)C(=O)N1CCC(NC(=O)Nc2ccc(OC(F)(F)F)cc2)CC1 (stereo not drawn) | 3.98
CC[C@H](C)C(=O)N1CCC(NC(=O)Nc2ccc(OC(F)(F)F)cc2)CC1 | 3.97
O=C(Nc1ccc(C(F)(C(F)(F)F)C(F)(F)F)cc1)NC1CCN(C(=O)CC(F)(F)F)CC1 | 4.89
CCS(=O)(=O)N1CCC(NC(=O)Nc2ccc(C(F)(F)F)cc2)CC1 | 3.08
CCCS(=O)(=O)N1CCC(NC(=O)Nc2ccc(C(F)(F)F)cc2)CC1 | 3.39
O=C(Nc1ccc(C(F)(F)F)cc1)NC1CCN(S(=O)(=O)C2CC2)CC1 | 3.39
O=C(Nc1ccc(C(F)(F)F)cc1)NC1CCN(S(=O)(=O)CC(F)(F)F)CC1 | 3.42
CCCCS(=O)(=O)N1CCC(NC(=O)Nc2ccc(C(F)(F)F)cc2)CC1 | 3.95
CCCCS(=O)(=O)N1CCC(NC(=O)Nc2ccc(OC(F)(F)F)cc2)CC1 | 4.13

System: not listed separately
Experiment: (§2) AUC in Swiss Webster mouse at 0.3 mg/kg, po administered as cassette dosing
Format: ADME, organism-based, Plasma
Design: dose 0.3 mg/kg, route oral
Details: Swiss Webster, plasma

SMILES | AUC [µM·h]
CS(=O)(=O)N1CCC(NC(=O)Nc2ccc(OC(F)(F)F)cc2)CC1 | 5.3
CS(=O)(=O)N1CCC(NC(=O)Nc2ccc(C(F)(F)F)cc2)CC1 | 4.67
CC(C)C(=O)N1CCC(NC(=O)Nc2ccc(C(F)(F)F)cc2)CC1 | 19.7
O=C(Nc1ccc(C(F)(F)F)cc1)NC1CCN(C(=O)C2CC2)CC1 | 24.6
CCC(C)C(=O)N1CCC(NC(=O)Nc2ccc(C(F)(F)F)cc2)CC1 (stereo not drawn) | 3.29
CC[C@H](C)C(=O)N1CCC(NC(=O)Nc2ccc(C(F)(F)F)cc2)CC1 | 4.94
O=C(Nc1ccc(C(F)(F)F)cc1)NC1CCN(C(=O)CC(F)(F)F)CC1 | 8.85
CCC(C)C(=O)N1CCC(NC(=O)Nc2ccc(C(C)C)cc2)CC1 (stereo not drawn) | 0.2
CCC(C)C(=O)N1CCC(NC(=O)Nc2ccc(C(F)(C(F)(F)F)C(F)(F)F)cc2)CC1 (stereo not drawn) | 1.6
CCC(C)C(=O)N1CCC(NC(=O)Nc2ccc(OC(F)(F)F)cc2)CC1 (stereo not drawn) | 3.3
CCC(C)C(=O)N1CCC(NC(=O)NC2CCCCCC2)CC1 (stereo not drawn) | 0.075
CC(C)C(=O)N1CCC(NC(=O)Nc2ccc(OC(F)(F)F)cc2)CC1 | 19.5
CC[C@H](C)C(=O)N1CCC(NC(=O)Nc2ccc(OC(F)(F)F)cc2)CC1 | 2.53
O=C(Nc1ccc(C(F)(C(F)(F)F)C(F)(F)F)cc1)NC1CCN(C(=O)CC(F)(F)F)CC1 | 9.6
O=C(Nc1ccc(C(F)(F)F)cc1)NC1CCN(S(=O)(=O)CC(F)(F)F)CC1 | 4.27
CCCCS(=O)(=O)N1CCC(NC(=O)Nc2ccc(C(F)(F)F)cc2)CC1 | 0.245
CCCCS(=O)(=O)N1CCC(NC(=O)Nc2ccc(OC(F)(F)F)cc2)CC1 | 0.22
CC(=O)N1CCC(NC(=O)NC23CC4CC(CC(C4)C2)C3)CC1 [AR9281] | 0.183

System: Mus musculus
Experiment: as §2
Format: ADME, organism-based, Plasma
Design: dose 0.3 mg/kg, route oral
Details: in vivo

SMILES | AUC [µM·h]
CCC(C)C(=O)N1CCC(NC(=O)N[C@H]2CC[C@H](CC)CC2)CC1 (stereo partly drawn) | 0.037

System: not listed separately
Experiment: in vivo
Details: Swiss Webster, mouse, po, 0.3 mg/kg

SMILES | Tmax [h]
CS(=O)(=O)N1CCC(NC(=O)Nc2ccc(C(F)(F)F)cc2)CC1 | 8
CC(C)C(=O)N1CCC(NC(=O)Nc2ccc(C(F)(F)F)cc2)CC1 | 4
O=C(Nc1ccc(C(F)(F)F)cc1)NC1CCN(C(=O)C2CC2)CC1 | 6
CCC(C)C(=O)N1CCC(NC(=O)Nc2ccc(C(F)(F)F)cc2)CC1 (stereo not drawn) | 0.5
CC[C@H](C)C(=O)N1CCC(NC(=O)Nc2ccc(C(F)(F)F)cc2)CC1 | 1
O=C(Nc1ccc(C(F)(F)F)cc1)NC1CCN(C(=O)CC(F)(F)F)CC1 | 8
CCC(C)C(=O)N1CCC(NC(=O)Nc2ccc(C(C)C)cc2)CC1 (stereo not drawn) | 0.5
CCC(C)C(=O)N1CCC(NC(=O)Nc2ccc(C(F)(C(F)(F)F)C(F)(F)F)cc2)CC1 (stereo not drawn) | 2.5
CCC(C)C(=O)N1CCC(NC(=O)Nc2ccc(OC(F)(F)F)cc2)CC1 (stereo not drawn) | 2
CCC(C)C(=O)N1CCC(NC(=O)NC2CCCCCC2)CC1 (stereo not drawn) | 0.5
CC(C)C(=O)N1CCC(NC(=O)Nc2ccc(OC(F)(F)F)cc2)CC1 | 5
CC[C@H](C)C(=O)N1CCC(NC(=O)Nc2ccc(OC(F)(F)F)cc2)CC1 | 4
O=C(Nc1ccc(C(F)(C(F)(F)F)C(F)(F)F)cc1)NC1CCN(C(=O)CC(F)(F)F)CC1 | 8
O=C(Nc1ccc(C(F)(F)F)cc1)NC1CCN(S(=O)(=O)CC(F)(F)F)CC1 | 8
CCCCS(=O)(=O)N1CCC(NC(=O)Nc2ccc(C(F)(F)F)cc2)CC1 | 1
CCCCS(=O)(=O)N1CCC(NC(=O)Nc2ccc(OC(F)(F)F)cc2)CC1 | 1.2

System: not listed separately
Experiment: AUC in Sprague-Dawley rat at 0.3 mg/kg, po administered as cassette dosing
Format: ADME, organism-based
Design: dose 0.3 mg/kg, route oral
Details: plasma

SMILES | AUC [µM·h]
CC(C)C(=O)N1CCC(NC(=O)Nc2ccc(C(F)(F)F)cc2)CC1 | 7.3
CC[C@H](C)C(=O)N1CCC(NC(=O)Nc2ccc(C(F)(F)F)cc2)CC1 | 5.72
CC(C)C(=O)N1CCC(NC(=O)Nc2ccc(OC(F)(F)F)cc2)CC1 | 12
CC[C@H](C)C(=O)N1CCC(NC(=O)Nc2ccc(OC(F)(F)F)cc2)CC1 | 2.59

System: not listed separately
Experiment: (§3) Cmax in Swiss Webster mouse at 0.3 mg/kg, po administered as cassette dosing
Format: ADME, organism-based
Design: dose 0.3 mg/kg, route oral
Details: Swiss Webster, in vivo

SMILES | Cmax [nM]
CS(=O)(=O)N1CCC(NC(=O)Nc2ccc(C(F)(F)F)cc2)CC1 | 130
CCC(C)C(=O)N1CCC(NC(=O)N[C@H]2CC[C@H](CC)CC2)CC1 (stereo partly drawn) | 5
CC(C)C(=O)N1CCC(NC(=O)Nc2ccc(C(F)(F)F)cc2)CC1 | 1160
O=C(Nc1ccc(C(F)(F)F)cc1)NC1CCN(C(=O)C2CC2)CC1 | 960
CCC(C)C(=O)N1CCC(NC(=O)Nc2ccc(C(F)(F)F)cc2)CC1 (stereo not drawn) | 320
CC[C@H](C)C(=O)N1CCC(NC(=O)Nc2ccc(C(F)(F)F)cc2)CC1 | 435
O=C(Nc1ccc(C(F)(F)F)cc1)NC1CCN(C(=O)CC(F)(F)F)CC1 | 330
CCC(C)C(=O)N1CCC(NC(=O)Nc2ccc(C(C)C)cc2)CC1 (stereo not drawn) | 90
CCC(C)C(=O)N1CCC(NC(=O)Nc2ccc(C(F)(C(F)(F)F)C(F)(F)F)cc2)CC1 (stereo not drawn) | 135
CCC(C)C(=O)N1CCC(NC(=O)Nc2ccc(OC(F)(F)F)cc2)CC1 (stereo not drawn) | 235
CCC(C)C(=O)N1CCC(NC(=O)NC2CCCCCC2)CC1 (stereo not drawn) | 3
CC(C)C(=O)N1CCC(NC(=O)Nc2ccc(OC(F)(F)F)cc2)CC1 | 900
CC[C@H](C)C(=O)N1CCC(NC(=O)Nc2ccc(OC(F)(F)F)cc2)CC1 | 195
O=C(Nc1ccc(C(F)(C(F)(F)F)C(F)(F)F)cc1)NC1CCN(C(=O)CC(F)(F)F)CC1 | 365
O=C(Nc1ccc(C(F)(F)F)cc1)NC1CCN(S(=O)(=O)CC(F)(F)F)CC1 | 100
CCCCS(=O)(=O)N1CCC(NC(=O)Nc2ccc(C(F)(F)F)cc2)CC1 | 30
CCCCS(=O)(=O)N1CCC(NC(=O)Nc2ccc(OC(F)(F)F)cc2)CC1 | 65
CC(=O)N1CCC(NC(=O)NC23CC4CC(CC(C4)C2)C3)CC1 [AR9281] | 30

System: Mus musculus
Experiment: as §3
Format: ADME, organism-based
Design: dose 0.3 mg/kg, route oral
Details: in vivo

SMILES | Cmax [nM]
CS(=O)(=O)N1CCC(NC(=O)Nc2ccc(OC(F)(F)F)cc2)CC1 | 370
